Test results taken from article PMC11738990, “A small-molecule TNIK inhibitor targets fibrosis in preclinical and clinical models” (Nature Biotechnology, 2024).
Like-named read-outs stand apart in the source and are kept apart here.

Tested on: healthy subjects

`CC(C)n1cnc(-c2ccc(F)cc2)c1-c1nc(C(=O)Nc2ccc(N3CCN(C)CC3)cc2)c[nH]1` [INS018_055, 2-[4-(4-fluorophenyl)-1-(prop-2-yl)imidazol-5-yl]-N-[4-(4-methylhexahydropyrazin-1-yl)phenyl]-1H-imidazole-4-carboxamide] was tested, and the “Any TEAE” value (MAD BID 7 d 30 mg N=6) was 66.7%, the “Any TEAE” value (MAD BID 7 d 60 mg N=6) was 100.0% and the “Any TEAE” value (MAD BID 7 d 90 mg N=6) was 100.0%. For the same compound, the Abdominal distension (MAD any dose N=18) was 5.6%, the Anaemia (MAD any dose N=18) was 11.1% and the “Any TEAE” value (MAD any dose N=18) was 88.9%. For the same compound, the Arthralgia (MAD any dose N=18) was 5.6%, the Basophil count increased (MAD any dose N=18) was 5.6% and the “Blood and lymphatic system disorders” value (MAD any dose N=18) was 11.1%. For the same compound, the Blood bilirubin increased (MAD any dose N=18) was 5.6%, the “Blood creatine phosphokinase increased” value (MAD any dose N=18) was 5.6% and the Blood fibrinogen decreased (MAD any dose N=18) was 11.1%. The Blood pressure decreased (MAD any dose N=18) was 5.6%, the Blood pressure increased (MAD any dose N=18) was 5.6% and the Cardiac disorders (MAD any dose N=18) was 5.6%. The Dizziness (MAD any dose N=18) was 22.2%, the Electrolyte imbalance (MAD any dose N=18) was 5.6% and the Epistaxis (MAD any dose N=18) was 11.1%. For the same compound, the Fecal occult positive (MAD any dose N=18) was 55.6%, the Gastrointestinal disorders (MAD any dose N=18) was 22.2% and the Haematuria (MAD any dose N=18) was 16.7%. The Headache (MAD any dose N=18) was 16.7%, the Hepatic enzyme increased (MAD any dose N=18) was 5.6% and the Hyperphosphataemia (MAD any dose N=18) was 5.6%. The Hypertriglyceridaemia (MAD any dose N=18) was 50.0%, the Hyponatraemia (MAD any dose N=18) was 5.6% and the Infections and infestations (MAD any dose N=18) was 5.6%. The Influenza like illness (MAD any dose N=18) was 27.8%, the Investigations (MAD any dose N=18) was 77.8% and the Limb discomfort (MAD any dose N=18) was 0.0%. The “Musculoskeletal and connective tissue disorders” value (MAD any dose N=18) was 33.3%, the Nasal obstruction (MAD any dose N=18) was 5.6% and the Nausea (MAD any dose N=18) was 5.6%. For the same compound, the Nervous system disorders (MAD any dose N=18) was 38.9%, the Pain in extremity (MAD any dose N=18) was 27.8% and the Pruritus (MAD any dose N=18) was 5.6%. For the same compound, the Pyrexia (MAD any dose N=18) was 11.1%, the Rash (MAD any dose N=18) was 16.7% and the “Renal and urinary disorders” value (MAD any dose N=18) was 16.7%. For the same compound, the “Respiratory, thoracic and mediastinal disorders” value (MAD any dose N=18) was 16.7%, the Sinus bradycardia (MAD any dose N=18) was 5.6% and the “Skin and subcutaneous tissue disorders” value (MAD any dose N=18) was 22.2%. The “Total bile acids increased” value (MAD any dose N=18) was 5.6%, the Vomiting (MAD any dose N=18) was 5.6% and the “White blood cells urine positive” value (MAD any dose N=18) was 11.1%. The “Any TEAE” value (SAD 30 mg N=6) was 83.3%, the “Any TEAE” value (SAD 60 mg N=6) was 33.3% and the “Any TEAE” value (SAD 120 mg N=6) was 50.0%. The “Any TEAE” value (SAD any dose N=18) was 55.6%, the Blood glucose increased (SAD any dose N=18) was 0.0% and the “Blood uric acid increased” value (SAD any dose N=18) was 5.6%.
